The text below walks through data of paper PMC10108397 (ACS Medicinal Chemistry Letters, 2023).

For one series, the system named is phospho-AKT (Ser129). The series is described as follows: Western blot analyses of pAKT and AKT in MDA-MB-231 cells. The series is classed as cell-based. The settings on record: 24 h exposure.
Series [1] deals with MDA-MB-231 cells. The series is described as follows: MDA-MB-231 cell viability assay. The settings on record: 48 h, up to 10 μM. The series is classed as cell-based.
Series [2] has as its system MDA-MB-231 cells. To be noted: 2–10 μM, 24–72 h, WST-1; cited from earlier work.
In series [3] the test system is 13 multiple myeloma cell lines. The settings on record: cited from earlier work.
The next series is described as follows: PAMPA. In kind it is in vitro ADME. The settings on record: correlation.
The subject of a further series is DYRKs and HIPKs. The series is described as follows: Enzymatic profiling, 8-member DYRK and HIPK panel. In kind it is biochemical. The settings on record: 1 μM.
The nature of another series: Kinetic solubility. The settings on record: for measured solubility relative to the dose concentration: actual solubility estimated to be higher than Table 1; for solubility kinetic at 24 h: pH 7.4, kinetic solubility, PBS pH 7.4, 24-hour incubation.
The next series has as its target PIP5K1C (Homo sapiens, UniProt O60331). Nature of the series: Enzymatic assay, dose-response. In kind it is biochemical.
In a further series the test system is CK2α and CK2α′. Nature of the series: CK2 NanoBRET assays.

Bounds are passed on as bounds.

PIP5K1C, sequence (O60331 whole entry): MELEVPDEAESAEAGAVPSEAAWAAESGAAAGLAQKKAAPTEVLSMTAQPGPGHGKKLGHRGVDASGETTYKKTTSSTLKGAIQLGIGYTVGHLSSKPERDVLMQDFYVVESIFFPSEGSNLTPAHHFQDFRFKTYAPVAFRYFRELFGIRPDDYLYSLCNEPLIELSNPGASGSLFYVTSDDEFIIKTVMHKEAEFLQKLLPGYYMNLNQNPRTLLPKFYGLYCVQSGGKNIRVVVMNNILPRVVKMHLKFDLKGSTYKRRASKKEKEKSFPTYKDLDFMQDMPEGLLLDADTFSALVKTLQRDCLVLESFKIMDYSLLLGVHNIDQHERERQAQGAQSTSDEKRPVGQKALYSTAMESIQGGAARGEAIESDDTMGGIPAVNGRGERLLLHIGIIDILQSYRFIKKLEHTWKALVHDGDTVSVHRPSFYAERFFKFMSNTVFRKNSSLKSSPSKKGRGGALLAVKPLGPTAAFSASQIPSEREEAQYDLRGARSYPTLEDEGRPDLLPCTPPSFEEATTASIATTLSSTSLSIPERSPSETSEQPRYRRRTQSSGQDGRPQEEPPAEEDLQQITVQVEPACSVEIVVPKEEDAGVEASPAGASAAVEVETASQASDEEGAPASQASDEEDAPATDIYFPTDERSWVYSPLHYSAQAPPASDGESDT

Regarding `O=C(O)c1ccc2c(c1)nc(Nc1cccc(Cl)c1)c1ccncc12` [CX-4945, 5-(3-chlorophenylamino)benzo[c][2,6]naphthyridine-8-carboxylic acid, reference compound], in the series with phospho-AKT (Ser129), the AKT phosphorylation entry is “dose-dependent inhibition of AKT phosphorylation” and the “total AKT expression” value was “no impact on total AKT expression”. The cytotoxicity result with MDA-MB-231 cells [1] is “did not exhibit cytotoxicity”. The cell growth result in the series on MDA-MB-231 cells [2] is on record as “cell growth is inhibited”. Further, the antiproliferative activity result in series [3] is on record as “low micromolar antiproliferative activity”.

For `N#Cc1cccc(Nc2nc3cc(C(=O)O)ccc3c3cncnc23)c1` [CX-5011, reference compound], the cytotoxicity result with MDA-MB-231 cells [1] is reported as “did not exhibit cytotoxicity”.

On to `O=C(O)c1ccc2c(c1)nc(NCc1ccccc1)c1ncncc12` [Compound 2], for which the “human fraction absorbed (%FA) correlated with PAMPA Pe” value in the series “PAMPA” is “greater than 80%”. Also, the “activity in DYRK and HIPK enzymatic panel” value in the series with DYRKs and HIPKs was “lacked activity against DYRKs and HIPKs”. For the same compound, in the series with phospho-AKT (Ser129), the AKT phosphorylation result is listed as “dose-dependent inhibition of AKT phosphorylation” and the “total AKT expression” value is listed as “no impact on total AKT expression”. Also, in the series with MDA-MB-231 cells [1], the cytotoxicity entry is reported as “neither compound 2 nor SGC-CK2-1 exhibited significant cytotoxicity”. Further, in “Kinetic solubility”, the “measured solubility relative to the dose concentration” value is “greater than 75%” and the solubility (kinetic) at 24 h is greater than 100 µM.

As to `O=C(O)c1ccc2c(c1)nc(NCc1ccccc1)c1ncccc12` [Compound 7], the “human fraction absorbed (%FA) correlated with PAMPA Pe” value in “PAMPA” is given as “greater than 80%”. Besides, the “PIP5K1C inhibition, enzymatic follow-up” value on PIP5K1C is reported as “did not result in PIP5K1C inhibition”. Besides, in the series on MDA-MB-231 cells [1], the cytotoxicity entry is reported as “did not exhibit cytotoxicity”. Also, the “binding in CK2α and CK2α′ NanoBRET assays” value in the series with CK2α and CK2α′ is given as “not bind either kinase at concentrations up to 10 μM”.

In the case of `COc1cccc(CCNc2nc3cc(C(=O)O)ccc3c3cncnc23)c1` [Compound 8], the “activity in DYRK and HIPK enzymatic panel” value with DYRKs and HIPKs is “lacked activity against DYRKs and HIPKs”. Moreover, in “Kinetic solubility”, the “measured solubility relative to the dose concentration” value is “greater than 75%” and the solubility (kinetic) at 24 h was greater than 100 µM.

Regarding `O=C(O)c1ccc2c(c1)nc(NCCc1cccc(Cl)c1)c1ncncc12` [Compound 9], the “activity in DYRK and HIPK enzymatic panel” value with DYRKs and HIPKs is “lacked activity against DYRKs and HIPKs”. Besides, the solubility (kinetic) at 24 h in “Kinetic solubility” was greater than 100 µM.

For the compound `O=C(O)c1ccc2c(c1)nc(NCCc1cccc(F)c1)c1ncncc12` [Compound 10], in the series with DYRKs and HIPKs, the “activity in DYRK and HIPK enzymatic panel” value was “potent inhibition of just one kinase”. Moreover, in the series “Kinetic solubility”, the kinetic solubility at 24 h is greater than 100 µM.

Turning to `O=C(O)c1ccc2c(c1)nc(Nc1ccc3ccccc3c1)c1ncncc12` [Compound 11], the “observation during solubility assessment” value in the series “Kinetic solubility” is given as “insoluble residue”.

As for `O=C(O)c1ccc2c(c1)nc(Nc1ccc(Cl)cc1)c1ncncc12` [Compound 12], in the series “Kinetic solubility”, the “measured solubility relative to the dose concentration” value is on record as “greater than 75%”.

On to `O=C(O)c1ccc2c(c1)nc(Nc1cccc(F)c1)c1ncncc12` [Compound 13], for which, in “Kinetic solubility”, the “measured solubility relative to the dose concentration” value is “greater than 75%”.

In the case of `O=C(O)c1ccc2c(c1)nc(Nc1ccccc1Cl)c1ncncc12` [Compound 15], the “observation during solubility assessment” value in “Kinetic solubility” is “insoluble residue”.

As for `O=C(O)c1ccc2c(c1)nc(Nc1ccccc1)c1ncncc12` [Compound 16], the “measured solubility relative to the dose concentration” value in the series “Kinetic solubility” is listed as “greater than 75%”.

Consider `O=C(O)c1ccc2c(c1)nc(NCCc1ccccc1)c1ncncc12` [Compound 17], for which, in the series with DYRKs and HIPKs, the “activity in DYRK and HIPK enzymatic panel” value is on record as “potent inhibition of just one kinase”. The kinetic solubility at 24 h in “Kinetic solubility” is greater than 100 µM.

For the compound `O=C(O)c1ccc2c(c1)nc(NCCc1cccc(Cl)c1)c1ccncc12` [Compound 18], in the series with DYRKs and HIPKs, the “activity in DYRK and HIPK enzymatic panel” value is reported as “potent inhibition of just one kinase”. For the same compound, in the series “Kinetic solubility”, the “measured solubility relative to the dose concentration” value was “greater than 75%” and the solubility (kinetic) at 24 h was greater than 100 µM.

Regarding `O=C(O)c1ccc2c(c1)nc(NCc1ccccc1)c1ccncc12` [Compound 21], in the series with DYRKs and HIPKs, the “activity in DYRK and HIPK enzymatic panel” value is “lacked activity against DYRKs and HIPKs”. For the same compound, in “Kinetic solubility”, the “measured solubility relative to the dose concentration” value is on record as “greater than 75%” and the solubility (kinetic) at 24 h was greater than 100 µM.

Take `O=C(O)c1ccc2c(c1)nc(NCCc1cccc(F)c1)c1ccncc12` [Compound 22]: in “Kinetic solubility”, the “measured solubility relative to the dose concentration” value is “greater than 75%” and the solubility (kinetic) at 24 h is greater than 100 µM.

For the compound `O=C(O)c1ccc2c(c1)nc(Nc1cccc(F)c1)c1ccncc12` [Compound 23], the “measured solubility relative to the dose concentration” value in “Kinetic solubility” is “greater than 75%”.

For `COc1cccc(CCNc2nc3cc(C(=O)O)ccc3c3cnccc23)c1` [Compound 24], the “activity in DYRK and HIPK enzymatic panel” value in the series on DYRKs and HIPKs is “potent inhibition of just one kinase”. Also, in the series “Kinetic solubility”, the “measured solubility relative to the dose concentration” value is on record as “greater than 75%” and the solubility (kinetic) at 24 h was greater than 100 µM.

In the case of `O=C(O)c1ccc2c(c1)nc(Nc1ccccc1)c1ccncc12` [Compound 25], the “measured solubility relative to the dose concentration” value in the series “Kinetic solubility” is listed as “greater than 75%”.

Consider `O=C(O)c1ccc2c(c1)nc(NCCc1ccccc1)c1ccncc12` [Compound 27, 5-(phenethylamino)benzo[c][2,6]naphthyridine-8-carboxylic acid], for which, in “Kinetic solubility”, the “measured solubility relative to the dose concentration” value was “greater than 75%” and the solubility (kinetic) at 24 h was greater than 100 µM.

As for `COc1cccc(Nc2nc3cc(C(=O)O)ccc3c3cnccc23)c1` [Compound 28, 5-((3-methoxyphenyl)amino)benzo[c][2,6]naphthyridine-8-carboxylic acid], in “Kinetic solubility”, the “measured solubility relative to the dose concentration” value was “greater than 75%”.

One may read the solubility (kinetic) as solubility judged after dilution from a stock solution rather than from solid.
